Data on twelve compounds can be found in PMC8122671, “New Succinimides with Potent Anticancer Activity: Synthesis, Activation of Stress Signaling Pathways and Characterization of Apoptosis in Leukemia and Cervical Cancer Cells” (International Journal of Molecular Sciences, 2021).

Data set [1] in a line: Lipophilicity (logkw) by reversed-phase chromatography (RP-HPLC). It is filed as physicochemical. The note with it: for logkw (Experimental): extrapolated to pure water; for logkw (Table S2): intercept of logk vs methanol fraction, n = 4. From the text: The main goal of the synthetic part was the synthesis of new derivatives of dicarboximides with decreased lipophilicity in comparison to the lead compounds, i.e., Ia–Ie and II. To reduce the lipophilicity of the new dicarboximides, a hydroxyalkyl chain connected with an aliphatic amine was introduced to the imides (Scheme 1). At the same time, the imide scaffold in derivatives from group 2 and 3 was the same as in lead compounds Ia–Ie and II, respectively (Figure 1). The structure of the imide was changed in derivatives 1b–1g. The lipophilicity of new derivatives was calculated using the Osiris Property Explorer program. For some compounds, lipophilicity was determined experimentally by a reversed-phase chromatography (detailed description is given in Materials and Methods and in the Supplementary Data, Table S2). Table 1 summarizes the calculated (clogP) and experimental (logkw) parameters of the lipophilicity of new derivatives.
The reversed-phase high-performance liquid chromatography (RP-HPLC) analysis was performed on a Merck–Hitachi LaChrom Elite System (Merck, Darmstadt, Germany) with diode array detector L-2455, thermostat L-2300, pump L-2130, and autosampler L-2200 and with the Waters XTerra MS RP-18 (3.5 μm, 150 × 4.6 mm) chromatographic column (Waters, Milford, MA, USA) as the stationary phase. The mobile phase consisted of methanol, water, and 0.1% (v/v) formic acid and was degassed by the use of the built-in membrane degasser. The methanol gradient grade for HPLC was purchased from Merck (Merck, Darmstadt, Germany) and formic acid from Polish Reagents (Polish Reagents, Gliwice, Poland); double-distilled water was used. Then, 5 μL of methanolic solutions (0.1%; m/v) of selected samples were applied to the chromatographic column by the use of an autosampler Hitachi L-2200 (LaChrom Elite, Hitachi-Merck, Darmstadt, Germany). The analysis was performed with the flow rate of 0.7 mL min^−1 in isocratic mode using various concentrations of organic modifier (methanol) in binary polar mobile phases; percentages of methanol in water were 45–70% (%, v/v) and changed by 5% per step. Chromatograms were detected at 254 nm and the temperature of the column was 25 °C. All experiments were repeated in triplicate, and the final results were taken to be the arithmetic means. Dead time was measured by the use of uracil (Calbiochem. Merck, Darmstadt, Germany). Statistical and regression analyses were performed using Statistica (ver. 13.3 for Windows). The chromatographic lipophilicity parameters ( logkW ) for selected samples were obtained by the extrapolation of the retention parameter logk to pure water, according to Equation (1):(1) logk=logkw−S·ϕ; where logkW is the value of the retention factor of a substance in pure water, S is the slope of the regression curve, and ϕ is the concentration of the organic modifier. The values of logk were calculated based on the raw HPLC data using the formula (2):(2) logk=logtR−t0/t0; where tR is the retention time and t0 is the dead retention time (determined for uracil).
The chromatographic lipophilicity parameters (logkௐ ) for selected samples were ob‐ tained by the extrapolation of the retention parame te r logk to pure water, according to […]
where logkௐ is the value of the retention factor of a substance in pure water, S is the slope of the regression curve, and φ is the concentration of the organic modifier. The values of logk were ca lcula ted based on the raw HPLC data using the formula: […]
logk ൌ log ሺ௧ೃ ି ௧బ௧బ ሻ (2) where tோ is the retention time and t଴ is the dead retention time (determined for ura‐ cil). The goodness of fit of the equation (1) to the experimental data was classified accord‐ ing to Jaffe (Jaffe, H. H. A Reexamination of the Hammet Equation. Chem. Rev. 1953, 53, In our RP‐HPLC experiments, the goodness of fit of the equation to the experi‐ mental data are excellent in most ca ses (r > 0.99). The F statistic val ues are, in all cases, […]

The test system of data set [2] is K562 (myelogenous leukemia cell line). Kind of data set: MTT cytotoxicity assay, K562. It is filed as cell-based, human. Particulars: Homo sapiens, K562, 48 h, 48 h incubation; average (SD) of three experiments; read-out: IC50 K562. The protocol: (§1) The cytotoxicity of new derivatives of dicarboximides was tested in HeLa (cervix carcinoma cell line), K562 (myelogenous leukemia cell line), MOLT-4 (Human T-Lymphoid Cell Line), and HUVEC (normal endothelial) cells. First, the viability of cells was determined after 48 h incubation with the screened compounds used at the concentration of 100 μM (data not shown). […] Cells exposed to 1% DMSO (as vehicle) served as the control with 100% survival.
(§2) Human umbilical vein endothelial cells (Life Technologies, Carlsbad, CA, USA) were cultured (according to the manufacturer’s instructions) in Medium 200 containing low serum growth supplement; 1 × 10^4 cells were seeded on each well on a 96-well plate (Nunc, Roskilde, Denmark). The HeLa (human cervix carcinoma), K562, and MOLT-4 (leukemia) cells were cultured in RPMI 1640 medium supplemented with antibiotics and 10% fetal calf serum in a 5% CO2–95% air atmosphere; 7 × 10^3 cells were seeded on each well on a 96-well plate (Nunc). Twenty-four hours later, cells were exposed to the test compounds for additional 48 hours. Stock solutions of test compounds were freshly prepared in DMSO. The final concentrations of the compounds tested in the cell cultures were 2 × 10^−1, 1 × 10^−1, 5 × 10^−2, 1 × 10^−2, 1 × 10^−3, and 1 × 10^−4 mM. The concentration of DMSO in the cell culture medium was 1%. The values of IC50 (the concentration of test compound required to reduce the cell survival fraction to 50% of the control) were calculated from dose–response curves and used as a measure of cellular sensitivity to a given treatment. The cytotoxicity of all compounds was determined by the MTT [3-(4,5-dimethylthiazol-2-yl)-2,5-diphenyltetrazolium bromide; Sigma, St. Louis, MO, USA] assay. Briefly, after 24 or 48 h of incubation with drugs, the cells were treated with the MTT reagent, and incubation was continued for 2 h. MTT-formazan crystals were dissolved in 20% SDS and 50% DMF at pH 4.7, and absorbance was read at 570 and 650 nm on a microplate reader FLUOstar Omega (BMG Labtech, Offenburg, Germany). As a control (100% viability), we used cells grown in the presence of the vehicle (1% DMSO) only.
In general terms: Tetrazolium assays rely on reduction of a dye to a coloured formazan, in cell work by metabolically active cells.

The subject of data set [3] is HUVEC (normal endothelial) cells. Kind of data set: MTT cytotoxicity assay, HUVEC. Format: cell-based. The note with it: Homo sapiens, 48 h incubation, average (SD) of three experiments, read-out: IC50 HUVEC. The protocol:
as §1, §2

The test system of data set [4] is MOLT-4 (Human T-Lymphoid Cell Line). The data set can be described thus: MTT cytotoxicity assay, MOLT-4. Format: cell-based. Particulars: MOLT-4, 48 h incubation, average (SD) of three experiments, read-out: IC50 MOLT-4. The protocol: as §1, §2
The test system of data set [5] is HeLa (human cervix carcinoma) cells. Kind of data set: MTT cytotoxicity assay, HeLa. Format: cell-based. Particulars: 48 h incubation, average (SD) of three experiments, read-out: IC50 HeLa. The protocol:
as §1, §2

Where a name gives a salt, the structure may show the parent alone.

The term melting point denotes the temperature, or range, at which the solid turns liquid. As to `CC12C(=O)C(C)(C(c3ccccc3)=C1c1ccccc1)C1C(=O)N(CCN3CCCCC3)C(=O)C12` (stereo not drawn) (as salt: HCl) [1i, 4-[2-(piperidin-1-yl)ethy]-1,7-dimethyl-8,9-diphenyl-4-azatricyclo[5.2.1.0^2,6]dec-8-ene-3,5,10-trione], the melting point lay within 214 to 216 °C.
Take `CCCCN(CCCC)CC(O)CN1C(=O)C2C(C1=O)C1(c3ccccc3)CC2(c2ccccc2)C(c2ccccc2)=C1c1ccccc1` (stereo not drawn) (as salt: HCl) [3e, 4-[3-(dibutylamino)-2-hydroxypropyl]-1,7,8,9-tetraphenyl-4-azatricyclo[5.2.1.0^2,6]dec-8-ene-3,5-dione]: the melting point lay in the range of 237 to 238 °C.
The IC50 is the concentration that gives 50% inhibition. As for `CCN(CC)CC(O)CN1C(=O)C2C(C1=O)C1(C)C(=O)C2(C)C(c2ccccc2)=C1c1ccccc1` (stereo not drawn) [1d, 4-[3-(diethylamino)-2-hydroxypropyl]-1,7-dimethyl-8,9-diphenyl-4-azatricyclo[5.2.1.0^2,6]dec-8-ene-3,5,10-trione], the “logkw (Experimental)” value in data set [1] was 4.87. Besides, in data set [1], the “logkw (Table S2)” value was 4.8734. Further, the IC50 in data set [2] turned out to be 39 µM; in data set [3], 22 µM; in data set [4], 37 µM; in data set [5] it was 59 µM.
Turning to `CC(C)(C)NCC(O)CN1C(=O)C2C(C1=O)C1(C)C(=O)C2(C)C(c2ccccc2)=C1c1ccccc1` (stereo not drawn) [1c, 4-[3-(tert-butylamino)-2-hydroxypropyl]-1,7-dimethyl-8,9-diphenyl-4-azatricyclo [5.2.1.0^2,6]dec-8-ene-3,5,10-trione], the “logkw (Experimental)” value in data set [1] is listed as 4.91. For the same compound, the “logkw (Table S2)” value in data set [1] is 4.9077. For the same compound, the IC50 in data set [2] worked out at 28 µM; in data set [3] it was 23 µM; in data set [4], 28 µM; in data set [5], 26 µM.
In the case of `O=C1C2C(C(=O)N1CC(O)CN1CCOCC1)C1(c3ccccc3)CC2(c2ccccc2)C(c2ccccc2)=C1c1ccccc1` (stereo not drawn) [3g, 4-[-2-hydroxy-3-(morpholin-4-yl)propyl]-1,7,8,9-tetraphenyl-4-azatricyclo[5.2.1.0^2,6]dec-8-ene-3,5-dione], in data set [1], the “logkw (Experimental)” value is 6.28. For the same compound, the “logkw (Table S2)” value in data set [1] amounted to 6.2759. For the same compound, the IC50 was 31 µM in data set [2], 17 µM in data set [3], 5.2 µM in data set [4] and 120 µM in data set [5].
In the case of `CCCCN(CCCC)CC(O)CN1C(=O)C2C(C1=O)C1(CC)C(=O)C2(CC)C(c2ccccc2)=C1c1ccccc1` (stereo not drawn) (as salt: HCl) [2e, 4-[3-(dibutylamino)-2-hydroxypropyl]-1,7-diethyl-8,9-diphenyl-4-azatricyclo[5.2.1.0^2,6]dec-8-ene-3,5,10-trione], the melting point was in the range of 92 to 110 °C.
Turning to `CCNCC(O)CN1C(=O)C2C(C1=O)C1(CC)C(=O)C2(CC)C(c2ccccc2)=C1c1ccccc1` (stereo not drawn) [2b, 4-[3-(ethylamino)-2-hydroxypropyl]-1,7-diethyl-8,9-diphenyl-4-azatricyclo [5.2.1.0^2,6]dec-8-ene-3,5,10-trione], the “logkw (Experimental)” value in data set [1] is on record as 5.08. Also, the “logkw (Table S2)” value in data set [1] turned out to be 5.0846. Also, the IC50 in data set [2] worked out at 8 µM; in data set [3], 3.4 µM; in data set [4] it was 14 µM; in data set [5], 26 µM.
The compound `CCCCN(CCCC)CC(O)CN1C(=O)C2C(C1=O)C1(C)C(=O)C2(C)C(c2ccccc2)=C1c1ccccc1` (stereo not drawn) (as salt: HCl) [1e, 4-[3-(dibutylamino)-2-hydroxypropyl]-1,7-dimethyl-8,9-diphenyl-4-azatricyclo [5.2.1.0^2,6]dec-8-ene-3,5,10-trione] showed a melting point of 192 to 196 °C.
Take `CCC12C(=O)C(CC)(C(c3ccccc3)=C1c1ccccc1)C1C(=O)N(CC(O)CN3CCOCC3)C(=O)C12` (stereo not drawn) [2g, 4-[-2-hydroxy-3-(morpholin-4-yl)propyl]-1,7-diethyl-8,9-diphenyl-4-azatricyclo[5.2.1.0^2,6]dec-8-ene-3,5,10-trione]: in data set [1], the “logkw (Experimental)” value was 4.98. In data set [1], the “logkw (Table S2)” value is given as 4.9763. For the same compound, the IC50 in data set [2] is 20 µM; in data set [3], 17 µM; in data set [4], 18 µM; in data set [5], 23 µM.
For the compound `CCNCC(O)CN1C(=O)C2C(C1=O)C1(C)C(=O)C2(C)C(c2ccccc2)=C1c1ccccc1` (stereo not drawn) [1b, 4-[3-(ethylamino)-2-hydroxypropyl]-1,7-dimethyl-8,9-diphenyl-4-azatricyclo [5.2.1.0^2,6]dec-8-ene-3,5,10-trione], in data set [1], the “logkw (Experimental)” value was 4.78. The “logkw (Table S2)” value in data set [1] is 4.7844. In addition, the IC50 in data set [2] came to 32 µM; in data set [3], 20 µM; in data set [4], 7 µM; in data set [5], 30 µM.
In the case of `CCCCN(CCCC)CC(O)CN1C(=O)C2C(C1=O)C1(CC)C(=O)C2(CC)C(c2ccccc2)=C1c1ccccc1` (stereo not drawn) [2e, 4-[3-(dibutylamino)-2-hydroxypropyl]-1,7-diethyl-8,9-diphenyl-4-azatricyclo[5.2.1.0^2,6]dec-8-ene-3,5,10-trione], the IC50 amounted to 4.1 µM in data set [2], 1.2 µM in data set [3], 3.1 µM in data set [4] and 19 µM in data set [5].
In the same order, the values of `CCCCN(CCCC)CC(O)CN1C(=O)C2C(C1=O)C1(c3ccccc3)CC2(c2ccccc2)C(c2ccccc2)=C1c1ccccc1` (stereo not drawn) [3e, 4-[3-(dibutylamino)-2-hydroxypropyl]-1,7,8,9-tetraphenyl-4-azatricyclo[5.2.1.0^2,6]dec-8-ene-3,5-dione] are 6 µM, 7 µM, 5.4 µM and 40 µM.
